Data from patent US20240139126A1, “NUTRITIONAL COMPOSITIONS FOR SKELETAL MUSCLE” (MITOCHOLINE LTD, priority 0001, published 2024).

How the values were obtained:
[1] = test system: adult onset mitochondrial myopathy patients; set-up: dose or concentration left out as unconfirmed; settings: cited from earlier work
primary myotubes [2] = assay: Mitophagy/autophagy: co-localization of mitochondria and lysosomes in primary myotubes; assay type: cell-based, rat; settings: blend 50 μM DiSu+20 μM NAM; individual compounds in corresponding molar amounts
Procedure: (§1) Primary Skeletal Muscle Cell culture. Primary myotube cells were obtained from postnatal day 0-2 (P0-P2) rat pups which were sacrificed by decapitation. Briefly, the rats were immersed in 70% ethanol and the hind-limbs removed under a dissection microscope, in dissection solution containing Dulbecco's Phosphate Buffered Saline (PBS) with penicillin streptomycin (5000 units/ml) and Amphotericin B (2.5 mg/L). The tissues were then digested in 0.2% collagenase solution at 37° C. for 30-40 minutes. The reaction was stopped by adding 2-3 ml fetal bovine serum (FBS), and the tissue suspension was centrifuged at 2010 rpm (700 g) for 10 minutes. The cell pellet was resuspended in pre-warmed growth medium, Dulbecco's modified Eagle's medium (DMEM), containing 20% FBS, 100 i.u./ml penicillin and 200 i.u./ml streptomycin], and plated on 22 mm coverslips that were pre-coated with 0.2% gelatin for 1 hour at 37° C. Cells were then cultured in a humidified CO2 incubator (5% CO2 in air) at 37° C. After 2 or 3 days, the medium was changed to a low-serum medium (DMEM containing 10% FBS without antibiotics), and was subsequently renewed every 3 or 4 days. All experiments were performed in vitro between days 2 and 11 in culture when spindle-shaped myoblasts had proliferated and aligned themselves for fusion (˜70% confluency).

primary myotube cultures = assay: Mitochondrial membrane potential (TMRM fluorescence) in primary myotube cultures; assay type: cell-based, rat; settings: DiSu 50 μM; NAM 20 μM
Procedure: Primary myotube cells were obtained from postnatal day 0-2 (P0-P2) rat pups which were sacrificed by decapitation. Briefly, the rats were immersed in 70% ethanol and the hind-limbs removed under a dissection microscope, in dissection solution containing Dulbecco's Phosphate Buffered Saline (PBS) with penicillin streptomycin (5000 units/ml) and Amphotericin B (2.5 mg/L). The tissues were then digested in 0.2% collagenase solution at 37° C. for 30-40 minutes. The reaction was stopped by adding 2-3 ml fetal bovine serum (FBS), and the tissue suspension was centrifuged at 2010 rpm (700 g) for 10 minutes. The cell pellet was resuspended in pre-warmed growth medium, Dulbecco's modified Eagle's medium (DMEM), containing 20% FBS, 100 i.u./ml penicillin and 200 i.u./ml streptomycin], and plated on 22 mm coverslips that were pre-coated with 0.2% gelatin for 1 hour at 37° C. […]
Tetramethyl rhodamine methyl ester (TMRM) was used to study the changes of the mitochondrial membrane potential (Δψm). […] TMRM fluorescence was excited at 543 nm (HeNe laser), and emission was measured at >560 nm. […] Therefore, the changes in potential are reflected by changes in fluorescence intensity within the mitochondria which is measured after thresholding out the background signal from the cytosol to give a mean value per pixel within the mitochondrial population of a cell. […]

primary myotubes [3] = assay: NADH autofluorescence: redox index and mitochondrial pool of NADH in primary myotubes; assay type: cell-based, rat; settings: blends 100 μM DiSu+40 μM NAM, 50 μM DiSu+20 μM NAM, choline 100 μM, succinate 50 μM
Procedure: as §1
NADH autofluorescence was excited at 351 and measured at 375-470 nm.

[4] = test system: dexamethasone-treated primary myotubes; assay: Energy capacity of primary myotubes in dexamethasone-induced sarcopenia cell culture model; assay type: cell-based, rat; settings: in words; for energy capacity / energy depletion compared to control cells: IAA + oligomycin; for time until cell total energy exhaustion and collapse: IAA 20 μM + oligomycin 2 μg/ml
Procedure: Primary rat myocyte cultures were prepared as described by Yao G., et al. ((Yao G., et. al. (2011) J Cell Sci v.124: 4194-4202. doi: 10.1242/jcs.088260).
All experiments were performed with 5-11 days cultured cells.
To test energetic capacity of cultures myotubes in atrophic conditions, myocyte cultures were differentiated for 5 days followed incubation in the presence of 1, 10, and 100 μM dexamethasone for 24 h.
All cultures were treated with an inhibitor of the ATP production in cellular cytoplasm via glycolysis, Iodoacetic Acid (IAA) (20 μM), and an inhibitor of the ATP production in mitochondria by oxidative phosphorylation, oligomycin (2 μg/ml). […] The cellular concentration of both cations can be indirectly measured by measuring fluorescence of Mag Fura-2 dye.

mice = settings: dietary supplementation; cited from earlier work

Molecule	blood and muscle NAD levels, muscle strength and mitochondrial biogenesis [1]	autophagy (co-localization of mitochondria and lysosomes) (primary myotubes [2])	TMRM fluorescence compared to control (primary myotube cultures)	redox index (NADH-dependent mitochondrial respiration) (primary myotubes [3])	energy capacity / energy depletion compared to control cells [4]	endurance exercise ability (mice)	time until cell total energy exhaustion and collapse [4]
NC(=O)c1cccnc1 [NAM, nicotinamide]	increased in all human subjects	not	increase in TMRM fluorescence	did not induce significant changes	Neither choline or succinate or NAM treatments had a noticeable effect		
O=C([O-])CCC(=O)[O-].[Na+].[Na+] [Succinate*, Sodium succinate (salt)]		not		did not induce significant changes	Neither choline or succinate or NAM treatments had a noticeable effect	increased endurance exercise ability	
CN(CC(=O)O)C(=N)N [creatine]							extended the time until cell total energy exhaustion and collapse
Choline bitartrate [Choline**]		not					
C[N+](C)(C)CCO.C[N+](C)(C)CCO.O=C([O-])CCC(=O)[O-] [DiSu, dicholine succinate]		significantly increase autophagy	increase in TMRM fluorescence				extended the time until cell total energy exhaustion and collapse
